Measured values published in US7842488B2, “Polynucleotides encoding a human 3-phosphoinositide- dependent protein kinase” (Medical Research Council, priority 1997, dated 2010).

What was measured:
PDK1 [1] = assay: PDK1 assay: activation of GST-PKBα by purified PDK1 with phospholipid vesicles; assay type: biochemical, rabbit; conditions: for fold-activation of GST-PKBα (PDK1 activity) / activation of PDK1 (in words): lipid 10 μM in vesicles of 100 μM PtdCho, 100 μM PtdSer, 30 min at 30° C.; for order of level of activation of the 3-phosphoinositide-dependent kinase (most effective first): rabbit skeletal muscle PDK1, FIG. 6; for activation and phosphorylation of GST-PKBα by PDK1 in the presence of Triton X-100: 0.5% (by vol) in the assay
Procedure: (§1) Assay of PDK1. The assay was carried out in two stages; in the first, GST-PKBα was incubated with PDK1 in the presence of MgATP and phospholipid vesicles to permit activation of GST-PKBα.
(§2) After 10 min at 30° C., the reactions were terminated by spotting the reaction mixture on to p81 phosphocellulose paper. The papers were washed in phosphoric acid and analysed as described previously. […] The basal GST-PKBα activity is the activity measured in the absence of PDK1.

PDK1 [2] = assay: Phosphorylation of GST-PKBα by PDK1 with [γ32P]ATP; assay type: biochemical, rabbit; conditions: lipid 10 μM in PtdCho/PtdSer vesicles
Procedure: Solutions were stored at 4° C. at concentrations 10-fold higher than those required in the assay and used within 2-4 days.
(§3) Phosphorylation of GST-PKB ? by PDK1. The incubations were identical to the Stage 1 described above except that [γ^32P] ATP (200-400 cpm/pmol) was used instead of unlabelled ATP. The reactions were terminated by making the solution 1% (by mass) in SDS. […] The Coomassie blue-staining bands corresponding to GST-PKBα were excised and the ^32P-radioactivity associated with each band was quantified.

GST-PKBα = target: T1, GST-PKBα (Homo sapiens, UniProt P31749); assay: Activity of PDK1 preparations towards GST-PKBα; assay type: biochemical; conditions: for phosphorylation of GST-PKBα: PtdIns(3,4,5)P3 lipids, high enzyme concentration; for specific activity towards GST-PKBα: in the presence of PtdIns(3,4,5)P3; for fold increase in GST-PKBα activity: in the presence of PtdIns(3,4,5)P3 vesicles
T1 construct: generate a full length cDNA encoding the PKBα gene; made in house; host or cells: human embryonic kidney 293 cells (pEBG2T), serum starved
Procedure: as §1, §2, §3

T1 sequence (P31749 whole entry): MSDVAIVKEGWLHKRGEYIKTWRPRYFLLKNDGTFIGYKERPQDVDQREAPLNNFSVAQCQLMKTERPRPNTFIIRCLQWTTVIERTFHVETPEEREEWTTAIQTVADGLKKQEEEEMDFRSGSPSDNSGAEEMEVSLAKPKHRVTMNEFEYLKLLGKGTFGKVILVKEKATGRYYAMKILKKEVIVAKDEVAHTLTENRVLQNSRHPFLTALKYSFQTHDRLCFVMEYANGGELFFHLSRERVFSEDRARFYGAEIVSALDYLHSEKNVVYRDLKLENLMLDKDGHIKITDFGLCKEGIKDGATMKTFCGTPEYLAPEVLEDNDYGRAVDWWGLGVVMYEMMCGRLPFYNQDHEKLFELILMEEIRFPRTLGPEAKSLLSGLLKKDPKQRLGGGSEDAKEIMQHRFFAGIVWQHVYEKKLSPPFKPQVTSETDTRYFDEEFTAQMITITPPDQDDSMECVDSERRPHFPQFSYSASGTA

CCCCC/C=C\C/C=C\CCCCCCCC(=O)OCC(COP(=O)(O)OC1C(O)C(OP(=O)(O)O)C(OP(=O)(O)O)C(OP(=O)(O)O)C1O)OC(=O)CCCCCCC/C=C\C/C=C\CCCCC (racemic) [Lipid 5, Racemic sn-1,2-dilinoleoyl PtdIns(3,4,5)P3]
fold-activation of GST-PKBα (PDK1 activity) (PDK1 [1]): 36 fold
order of level of activation of the 3-phosphoinositide-dependent kinase (most effective first) (PDK1 [1]): 1

CCCCC/C=C\C/C=C\C/C=C\C/C=C\CCCC(=O)OC(COC(=O)CCCCCCCCCCCCCCCCC)COP(=O)(O)OC1C(O)C(OP(=O)(O)O)C(OP(=O)(O)O)C(OP(=O)(O)O)C1O (single isomer, unassigned) [Lipid 3, D-enantiomer of sn-2-arachidonyl-3-stearoyl PtdIns(3,4,5)P3]
fold-activation of GST-PKBα (PDK1 activity) (PDK1 [1]; 3-stearoyl D-PtdIns(3,4,5)P3): 16 fold
activation of PDK1 (in words) (PDK1 [1]; listed as D-enantiomer of sn-2-arachidonyl-3-stearoyl PtdIns(3,4,5)P3): potently activated PDK1
order of level of activation of the 3-phosphoinositide-dependent kinase (most effective first) (PDK1 [1]): 2

CCCCC/C=C\C/C=C\C/C=C\C/C=C\CCCC(=O)OC(COC(=O)CCCCCCCCCCCCCCCCC)COP(=O)(O)OC1C(O)C(OP(=O)(O)O)C(OP(=O)(O)O)C(OP(=O)(O)O)C1O (single isomer, unassigned) [Lipid 4, L-enantiomer of sn-2-arachidonyl-3-stearoyl PtdIns(3,4,5)P3]
activation of PDK1 (in words) (PDK1 [1]): no significant activation
fold-activation of GST-PKBα (PDK1 activity) (PDK1 [1]; 3-stearoyl L-PtdIns(3,4,5)P3): 2.3 fold
activation of PDK1 (in words) (PDK1 [1]; listed as L-enantiomer of sn-2-arachidonyl-3-stearoyl PtdIns(3,4,5)P3): almost ineffective

O=P(O)(O)O[C@H]1[C@H](O)[C@@H](OP(=O)(O)O)[C@H](OP(=O)(O)O)[C@@H](OP(=O)(O)O)[C@H]1O [IP4, inositol 1,3,4,5-tetrakisphosphate]
activation of PDK1 (in words) (PDK1 [1]): no significant activation
activation of PDK1 (in words) (PDK1 [1]; listed as Ins(1,3,4,5)P4): did not activate PDK1
activation of PDK1 (in words) (PDK1 [1]; listed as inositol 1,3,4,5-tetrakisphosphate): did not activate PDK1 at all
phosphorylation of GST-PKBα by PDK1 (in words) (PDK1 [2]): did not activate PDK1 or induce the phosphorylation

CCCCCCCCCCCCCCCC(=O)OCC(COP(=O)(O)OC1C(O)C(OP(=O)(O)O)C(OP(=O)(O)O)C(OP(=O)(O)O)C1O)OC(=O)CCCCCCCCCCCCCCC (stereo not shown) [Lipid 6, sn-1,2 di-palmitoyl PtdIns(3,4,5)P3]
fold less effective in activating PDK1 than the sn-1-stearoyl-2-arachidonyl and sn-2-arachidonyl-3-stearoyl derivatives (PDK1 [1]): ~3 fold
fold-activation of GST-PKBα (PDK1 activity) (PDK1 [1]): about 6 fold
fold-activation of GST-PKBα (PDK1 activity) (PDK1 [1]; listed as sn-1,2-dipalmitoyl D-PtdIns(3,4,5)P3): 5.5 fold
order of level of activation of the 3-phosphoinositide-dependent kinase (most effective first) (PDK1 [1]): 4

CCCCCCCCCCCCCCCC(=O)OC[C@H](COP(=O)(O)OC1C(O)C(OP(=O)(O)O)C(O)C(OP(=O)(O)O)C1O)OC(=O)CCCCCCCCCCCCCCC (stereo partly shown) [Lipid 8, sn-1,2 di-palmitoyl PtdIns(3,5)P2]
activation of PDK1 (in words) (PDK1 [1]): no significant activation
activation of PDK1 (in words) (PDK1 [1]; listed as PtdIns(3,5)P2): did not activate PDK1 at all
activation of PDK1 (in words) (PDK1 [1]; listed as lipid 8): did not activate PDK1
phosphorylation of GST-PKBα by PDK1 (in words) (PDK1 [2]): did not activate PDK1 or induce the phosphorylation

GST-PDK1: residues 52-556 of human PDK1 expressed in 293 cells as fusion with glutathione S-transferase
phosphorylation of GST-PKBα (GST-PKBα): 0.75 mol phosphate per mol protein
specific activity towards GST-PKBα (GST-PKBα): 78 000 U/mg
fold increase in GST-PKBα activity (GST-PKBα): 35 fold

Triton X-100
activation and phosphorylation of GST-PKBα by PDK1 in the presence of Triton X-100 (PDK1 [1]; listed as Triton X100): completely inhibits
activation and phosphorylation of GST-PKBα by PDK1 in the presence of Triton X-100 (PDK1 [1]; listed as Triton-X100): prevented

protein tyrosine phosphatase 1B: protein tyrosine phosphatase 1B
PDK1 activity after treatment with phosphatase (PDK1 [1]; high concentrations of phosphatase): no effect on activity

B1: GST-DSTPK61: residues 1-752 of Drosophila DSTPK61 expressed in E. coli as GST fusion (protein)
chain: MKCKSWSNKINNYVVRKIKSIKINGTQQQLQLPGSGASGIAAAAVITVASDCGENCSSNGTEHQQHFNIATTTATSATEATMPAMAKEKASATVSLGESNFRDINLKDLAVVVEAASRLHHQQNVCGCGAVSSTENNNNSRYGSSKYLTNGHTSPLAAAVASNSSSVATTPHCRMLHNCSLQQYQNDIRQQTEILDMLRQQHQQGYQSQQQQQQPQQQQEQQQQQEQSQQQQQLQNPAPRRSPNDFIFGRYIGEGSYSIVYLAVDIHSRREYAIKVCEKRLILRERKQDYIKREREVMHQMTNVPGFVNLSCTFQDQRSLYFVMTYARKGDMLPYINRVGSFDVACTRHYAAELLLACEHMHRRNVVHRDLKPENILLDEDMHTLIADFGSAKVMTAHERALATEHCSEQRRSNSDEDDEDSDRLENEDEDFYDRDSEELDDGDDEQQQEEMDSPRHRQRRYNRHRKASFVGTAQYVSPEVLQNGPITPAADLWALGCIVYQMIAGLPPFRGSNDYVIFKEILDCAVDFPQGFDKDAEDLVRKLLRVDPRDRLGAQDEFGYYESIRAHPFFAGIDWQTLRQQTPPPIYPYLPGVSQDEDFRSSYTVPGDLEPGLDERQISRLLSAELGVGSSVAMPVKRSTAKNSFDLNDAEKLQRLEQQKTDKWHVFADGEVILKKGFVNKRKGLFARKRMLLLTTGPRLIYIDPVQMIKKGEIPWSPDLRAEYKNFKIFFVHTPNRTYYLDDPEGYAIHW
modifications: left off: a dimerising Fc or GST
notes: residues 1-752 of Drosophila DSTPK61 expressed in E. coli as GST fusion
phosphorylation of GST-PKBα (GST-PKBα): 0.75 mol phosphate per mol protein
specific activity towards GST-PKBα (GST-PKBα): 280 U/mg
fold increase in GST-PKBα activity (GST-PKBα): 35 fold

B2: GST-ΔPH-PDK1: PDK1 mutant lacking the putative C-terminal PH domain, residues 1-450, GST fusion (protein, UniProt O15530 1-450, looked up, fragment)
chain: MARTTSQLYDAVPIQSSVVLCSCPSPSMVRTQTESSTPPGIPGGSRQGPAMDGTAAEPRPGAGSLQHAQPPPQPRKKRPEDFKFGKILGEGSFSTVVLARELATSREYAIKILEKRHIIKENKVPYVTRERDVMSRLDHPFFVKLYFTFQDDEKLYFGLSYAKNGELLKYIRKIGSFDETCTRFYTAEIVSALEYLHGKGIIHRDLKPENILLNEDMHIQITDFGTAKVLSPESKQARANSFVGTAQYVSPELLTEKSACKSSDLWALGCIIYQLVAGLPPFRAGNEYLIFQKIIKLEYDFPEKFFPKARDLVEKLLVLDATKRLGCEEMEGYGPLKAHPFFESVTWENLHQQTPPKLTAYLPAMSEDDEDCYGNYDNLLSQFGCMQVSSSSSSHSLSASDTGLPQRSGSNIEQYIHDLDSNSFELDLQFSEDEKRLLLEKQAGGNPWHQ
modifications: GST fusion tag
notes: PDK1 mutant lacking the putative C-terminal PH domain, residues 1-450, GST fusion
fold reduction of the rate of activation of GST-PKBα compared to full length wild-type GST-PDK1 (GST-PKBα; PtdIns(3,4,5)P3 present): about 30 fold

B3: GST-D223A-PDK1: catalytically inactive GST-PDK1 mutant in which Asp223 was changed to Ala (protein, UniProt O15530 1-556, looked up, variant D223A)
3-phosphoinositide-dependent …: MARTTSQLYDAVPIQSSVVLCSCPSPSMVRTQTESSTPPGIPGGSRQGPAMDGTAAEPRPGAGSLQHAQPPPQPRKKRPEDFKFGKILGEGSFSTVVLARELATSREYAIKILEKRHIIKENKVPYVTRERDVMSRLDHPFFVKLYFTFQDDEKLYFGLSYAKNGELLKYIRKIGSFDETCTRFYTAEIVSALEYLHGKGIIHRDLKPENILLNEDMHIQITAFGTAKVLSPESKQARANSFVGTAQYVSPELLTEKSACKSSDLWALGCIIYQLVAGLPPFRAGNEYLIFQKIIKLEYDFPEKFFPKARDLVEKLLVLDATKRLGCEEMEGYGPLKAHPFFESVTWENLHQQTPPKLTAYLPAMSEDDEDCYGNYDNLLSQFGCMQVSSSSSSHSLSASDTGLPQRSGSNIEQYIHDLDSNSFELDLQFSEDEKRLLLEKQAGGNPWHQFVENNLILKMGPVDKRKGLFARRRQLLLTEGPHLYYVDPVNKVLKGEIPWSQELRPEAKNFKTFFVHTPNRTYYLMDPSGNAHKWCRKIQEVWRQRYQSHPDAAVQ
modifications: GST fusion tag
phosphorylation and activation of GST-PKBα (in words) (GST-PKBα; PtdCho/PtdSer lipid vesicles containing PtdIns(3,4,5)P3): did not phosphorylate or active GST-PKBα
